Test results published in patent publication US8173788B2, “Peptide having ability to activate cancer-related gene” (priority 2005, dated 2012).

Test system: human normal peripheral blood monocyte
Assay: Influence of the artificially synthesized peptide on normal cell genes: coculture 7 hr, DNA chip system (Clontech), about 55000 human genes (Table 4)
Assay type: cell-based
Conditions: Suppressed Gene, Immune System Gene
Experimental: (a) The peptide obtained in Example 3 was added to a human normal peripheral blood monocyte culture system (10 to 100 μg peptide/1×10^6 to 1×10^7 monocytes), and they were cocultured for 7 hr. Then, mRNA was extracted from the monocytes and was applied to analysis for up-regulation and down-regulation in respect to about 55000 human genes by using DNA chip system (Clontech).

[1] = Gene No. 12812, ovarian carcinoma immunoreactive antigen (OCIA)
[2] = Gene No. 14949, programmed cell death 10 (PDCD10), transcript variant 1
[3] = Gene No. 15907, intercellular adhesion molecule 2 (ICAM2)
[4] = Gene No. 15994, beta-2-microglobulin (B2M)
[5] = Gene No. 16478, tumor necrosis factor (ligand) superfamily, member 12 (TNFSF12), transcript variant 1, mRNA
[6] = Gene No. 16756, major histocompatibility complex, class I, E (HLA-E)
[7] = Gene No. 17177, tumor necrosis factor superfamily, member 5-induced protein 1 (TNFSF5IP1)
[8] = Gene No. 18139, major histocompatibility complex, class II, DQ alpha 1 (HLA-DQA1)
[9] = Gene No. 18884, (clone 38-1) MHC class I mRNA fragment.
[10] = Gene No. 20551, IL2-inducible T-cell kinase (ITK)
[11] = Gene No. 20881, natural killer cell transcript 4 (NK4)
[12] = Gene No. 21487, programmed cell death 2 (PDCD2), transcript variant 1
[13] = Gene No. 22326, immune associated nucleotide 2 (hIAN2)
[14] = Gene No. 22789, CASP8 and FADD-like apoptosis regulator (CFLAR)
[15] = Gene No. 22868, lymphocyte cytosolic protein 2 (SH2 domain containing leukocyte protein of 76 kDa) (LCP2)
[16] = Gene No. 22890, NK inhibitory receptor precursor (NKIR)
[17] = Gene No. 23827, major histocompatibility complex, class II, DM alpha (HLA-DMA)
[18] = Gene No. 24440, THYMUS cDNA clone CS0CAP007YL06 5-PRIME
[19] = Gene No. 24969, CD69 antigen (p60, early T-cell activation antigen) (CD69)
[20] = Gene No. 34736, adhesion molecule AMICA (AMICA)
[21] = Gene No. 37068, immediate early response 2 (IER2)
[22] = Gene No. 37445, mal, T-cell differentiation protein (MAL), transcript variant d
[23] = Gene No. 37834, proteasome (prosome, macropain) 26S subunit, non-ATPase, 1 (PSMD1)
[24] = Gene No. 38103, tumor necrosis factor receptor superfamily, member 7 (TNFRSF7)
[25] = Gene No. 38879, interferon stimulated gene 20 kDa (ISG20)
[26] = Gene No. 39926, thymosin-like 6 (TMSL6)
[27] = Gene No. 39991, lymphotoxin beta (TNF superfamily, member 3) (LTB), transcript variant 2
[28] = Gene No. 40727, linker for activation of T cells (LAT)
[29] = Gene No. 41726, apoptosis-associated speck-like protein containing a CARD (ASC), transcript variant 1
[30] = Gene No. 41803, programmed cell death 2 (PDCD2), transcript variant 2
[31] = Gene No. 41817, major histocompatibility complex, class I, F (HLA-F)
[32] = Gene No. 42474, programmed cell death 6 (PDCD6)
[33] = Gene No. 42573, T-cell activation protein (PGR1)
[34] = Gene No. 42614, killer cell lectin-like receptor subfamily K, member 1 (KLRK1)
[35] = Gene No. 42661, proteasome (prosome, macropain) subunit, beta type, 9 (large multifunctional protease 2) (PSMB9), transcript variant 1
[36] = Gene No. 42680, proteasome (prosome, macropain) 26S subunit, ATPase, 4 (PSMC4), transcript variant 1
[37] = Gene No. 42813, granzyme A (granzyme 1, cytotoxic T-lymphocyte-associated serine esterase 3) (GZMA)
[38] = Gene No. 43032, interferon, gamma-inducible protein 16 (IFI16)
[39] = Gene No. 45767, HLA-B associated transcript 1 (BAT1), transcript variant 1
[40] = Gene No. 46186, cell death-regulatory protein GRIM19 (GRIM19)
[41] = Gene No. 47689, killer cell lectin-like receptor subfamily B, member 1 (KLRB1)
[42] = Gene No. 47973, CD8 antigen, beta polypeptide 1 (p37) (CD8B1), transcript variant 5
[43] = Gene No. 49170, interferon gamma receptor 2 (interferon gamma transducer 1) (IFNGR2)
[44] = Gene No. 49586, interleukin-1 receptor-associated kinase 4 (IRAK4)
[45] = Gene No. 49622, intercellular adhesion molecule 3 (ICAM3)
[46] = Gene No. 51004, tumor necrosis factor (ligand) superfamily, member 10 (TNFSF10)
[47] = Gene No. 52071, interferon (alpha, beta and omega) receptor 1 (IFNAR1)
[48] = Gene No. 52342, apoptosis-related protein PNAS-1 (FLJ39616)
[49] = Gene No. 52539, major histocompatibility complex, class II, DR alpha (HLA-DRA)
[50] = Gene No. 53172, transforming growth factor, beta 1 (Camurati-Engelmann disease) (TGFB1)

**Q.** What does the source list for “the Peptide (QPQFGRRMESK; Human squamous cell carcinoma)”?
**A.** Suppression Ratio (Gene No. 11651, implantation-associated protein (DKFZp564K142)): 89.16; Expression Amount after Treatment with the Peptide [1]: 24.53; Suppression Ratio [1]: 47.97; Expression Amount after Treatment with the Peptide [2]: 25.27; Suppression Ratio [2]: 40.37; Expression Amount after Treatment with the Peptide [3]: 6.364; Suppression Ratio [3]: 143.4; Expression Amount after Treatment with the Peptide [4]: 239.5; Suppression Ratio [4]: 47.59; Expression Amount after Treatment with the Peptide [5]: 6.018; Suppression Ratio [5]: 110.2; Expression Amount after Treatment with the Peptide [6]: 2.806; Suppression Ratio [6]: 140.8; Expression Amount after Treatment with the Peptide [7]: 26.16; Suppression Ratio [7]: 39.51; Expression Amount after Treatment with the Peptide [8]: 33.12; Suppression Ratio [8]: 80.32; Expression Amount after Treatment with the Peptide [9]: 3.387; Suppression Ratio [9]: 100.2; Expression Amount after Treatment with the Peptide [10]: 22.93; Suppression Ratio [10]: 122.6; Expression Amount after Treatment with the Peptide [11]: 38.17; Suppression Ratio [11]: 172.9; Expression Amount after Treatment with the Peptide [12]: 9.909; Suppression Ratio [12]: 39.12; Expression Amount after Treatment with the Peptide [13]: 9.743; Suppression Ratio [13]: 113.2; Expression Amount after Treatment with the Peptide [14]: 9.725; Suppression Ratio [14]: 75.25; Expression Amount after Treatment with the Peptide [15]: 6.525; Suppression Ratio [15]: 82.73; Expression Amount after Treatment with the Peptide [16]: 9.902; Suppression Ratio [16]: 112.4; Expression Amount after Treatment with the Peptide [17]: 29.78; Suppression Ratio [17]: 80.72; Expression Amount after Treatment with the Peptide [18]: 0.2348; Suppression Ratio [18]: 59.63; Expression Amount after Treatment with the Peptide [19]: 25.71; Suppression Ratio [19]: 95.14; Expression Amount after Treatment with the Peptide [20]: 29.08; Suppression Ratio [20]: 136.7; Expression Amount after Treatment with the Peptide [21]: 57.38; Suppression Ratio [21]: 121.3; Expression Amount after Treatment with the Peptide [22]: 14.875; Suppression Ratio [22]: 112.4; Expression Amount after Treatment with the Peptide [23]: 14.11; Suppression Ratio [23]: 38.69; Expression Amount after Treatment with the Peptide [24]: 5.778; Suppression Ratio [24]: 121.8; Expression Amount after Treatment with the Peptide [25]: 31.94; Suppression Ratio [25]: 91.84; Expression Amount after Treatment with the Peptide [26]: 317.7; Suppression Ratio [26]: 54.8; Expression Amount after Treatment with the Peptide [27]: 17.77; Suppression Ratio [27]: 135.9; Expression Amount after Treatment with the Peptide [28]: 28.17; Suppression Ratio [28]: 42.75; Expression Amount after Treatment with the Peptide [29]: 33.51; Suppression Ratio [29]: 134.7; Expression Amount after Treatment with the Peptide [30]: 0.82; Suppression Ratio [30]: 108.8; Expression Amount after Treatment with the Peptide [31]: 98.43; Suppression Ratio [31]: 107.9; Expression Amount after Treatment with the Peptide [32]: 17.04; Suppression Ratio [32]: 68.35; Expression Amount after Treatment with the Peptide [33]: 15.75; Suppression Ratio [33]: 60.53; Expression Amount after Treatment with the Peptide [34]: 4.848; Suppression Ratio [34]: 129.2; Expression Amount after Treatment with the Peptide [35]: 39.14; Suppression Ratio [35]: 38.48; Expression Amount after Treatment with the Peptide [36]: 42.03; Suppression Ratio [36]: 38.46; Expression Amount after Treatment with the Peptide [37]: 38.51; Suppression Ratio [37]: 115.5; Expression Amount after Treatment with the Peptide [38]: 4.446; Suppression Ratio [38]: 116.8; Expression Amount after Treatment with the Peptide [39]: 18.125; Suppression Ratio [39]: 130.2; Expression Amount after Treatment with the Peptide [40]: 25.55; Suppression Ratio [40]: 55.07; Expression Amount after Treatment with the Peptide [41]: 72.08; Suppression Ratio [41]: 52.77; Expression Amount after Treatment with the Peptide [42]: 9.639; Suppression Ratio [42]: 153.6; Expression Amount after Treatment with the Peptide [43]: 10.09; Suppression Ratio [43]: 70.7; Expression Amount after Treatment with the Peptide [44]: 2.716; Suppression Ratio [44]: 91.49; Expression Amount after Treatment with the Peptide [45]: 39.68; Suppression Ratio [45]: 86.23; Expression Amount after Treatment with the Peptide [46]: 8.725; Suppression Ratio [46]: 39.65; Expression Amount after Treatment with the Peptide [47]: 9.429; Suppression Ratio [47]: 44.09; Expression Amount after Treatment with the Peptide [48]: 18.72; Suppression Ratio [48]: 64.11; Expression Amount after Treatment with the Peptide [49]: 158.7; Suppression Ratio [49]: 109.3; Expression Amount after Treatment with the Peptide [50]: 6.56; Suppression Ratio [50]: 88.02
